Where two headings read alike, the source gives them in different places.
Columns and labels:
[1] = system: A549, MDCK, Vero E6, MA104, MARC-145, and LLC-PK cells; settings: 10 μM

Method for SARS-COV-2: Syrian hamsters (Female, 11 weeks, Raon Bio Co., Ltd.) were infected with SARS-COV-2 (2×10^5 pfu/mL) through intranasal irrigation.
Body weight was measured on the day of infection, the second day after infection, and the fourth day after infection.
Autopsy was measured on the fourth day after infection.

## CC[C@H](C)[C@H](NC(=O)[C@H](CCCNC(=N)N)NC(=O)CCN1C(=O)CC(SC[C@H](NC(=O)[C@H](CCCCNC(=O)CCOCCOCCOCCOCCOCCOCCNC(=O)[C@H](CCCCN)NC(=O)[C@H](CC(C)C)NC(=O)[C@H](Cc2ccc(O)cc2)NC(=O)[C@@H](NC(=O)[C@H](CCSC)NC(=O)[C@H](C)NC(=O)CNC(=O)[C@H](Cc2c[nH]cn2)NC(=O)[C@@H](N)CCCNC(=N)N)C(C)C)NC(=O)CCOCCOCCOCCOCCOCCOCCNC(=O)[C@H](CCCCN)NC(=O)[C@H](CC(C)C)NC(=O)[C@H](Cc2ccc(O)cc2)NC(=O)[C@@H](NC(=O)[C@H](CCSC)NC(=O)[C@H](C)NC(=O)CNC(=O)[C@H](Cc2c[nH]cn2)NC(=O)[C@@H](N)CCCNC(=N)N)C(C)C)C(=O)O)C1=O)C(=O)N[C@@H](CCSC)C(=O)N[C@@H](CCCNC(=N)N)C(=O)N[C@H](C(=O)N[C@@H](CC(C)C)C(=O)N[C@@H](CCCNC(=N)N)C(=O)N[C@H](C(=O)N[C@@H](CC(C)C)C(=O)N[C@@H](CCCCN)C(=O)N[C@@H](CC(C)C)C(=O)N[C@@H](C)C(=O)N[C@@H](CCCNC(=N)N)C(=O)O)[C@@H](C)CC)[C@@H](C)CC (some centres unmarked) [AGM-330d-mCPP]
[1]
  cytotoxicity at high concentration: did not exhibit significant cytotoxicity
SARS-COV-2; 6 mg/kg
  lung histopathological lesions versus virus control group: significantly reduced
SARS-COV-2; 6 mg/kg, autopsy fourth day after infection
  macroscopic lung changes versus virus control group: significantly alleviated
SARS-COV-2; 0.2, 2, 6 mg/kg i.p., eight times for four days, observed 5 days after infection
  mortality: no dead animals occurred
SARS-COV-2; 0.2, 2, 6 mg/kg i.p., day of infection, day 2, day 4
  body weight change versus virus control group: No significant weight change
SARS-COV-2; AGM-1: 0.2 mg/kg, 5 animals
  Lung, Alveolar wall thickening: Mild, incidence: 3
  Lung, Alveolar wall thickening: Minimal, incidence: 0
  Lung, Alveolar wall thickening: Moderate, incidence: 2
  Lung, Alveolar wall thickening: Normal, incidence: 0
  Lung, Alveolar wall thickening: Severe, incidence: 0
  Lung, Hemorrhage: Mild, incidence: 2
  Lung, Hemorrhage: Minimal, incidence: 3
  Lung, Hemorrhage: Moderate, incidence: 0
  Lung, Hemorrhage: Normal, incidence: 0
  Lung, Hemorrhage: Severe, incidence: 0
  Lung, Hyaline membrane: Mild, incidence: 3
  Lung, Hyaline membrane: Minimal, incidence: 0
  Lung, Hyaline membrane: Moderate, incidence: 2
  Lung, Hyaline membrane: Normal, incidence: 0
  Lung, Hyaline membrane: Severe, incidence: 0
  Lung, Inflammatory cell, intestinal: Mild, incidence: 2
  Lung, Inflammatory cell, intestinal: Minimal, incidence: 0
  Lung, Inflammatory cell, intestinal: Moderate, incidence: 3
  Lung, Inflammatory cell, intestinal: Normal, incidence: 0
  Lung, Inflammatory cell, intestinal: Severe, incidence: 0
  Lung, Neutrophilic/lymphocytic cell, alveolar: Mild, incidence: 3
  Lung, Neutrophilic/lymphocytic cell, alveolar: Minimal, incidence: 2
  Lung, Neutrophilic/lymphocytic cell, alveolar: Moderate, incidence: 0
  Lung, Neutrophilic/lymphocytic cell, alveolar: Normal, incidence: 0
  Lung, Proteinaceous debris: Mild, incidence: 2
  Lung, Proteinaceous debris: Minimal, incidence: 3
  Lung, Proteinaceous debris: Moderate, incidence: 0
  Lung, Proteinaceous debris: Normal, incidence: 0
  Lung, Proteinaceous debris: Severe, incidence: 0
SARS-COV-2; AGM-2: 2 mg/kg, 5 animals
  Lung, Alveolar wall thickening: Mild, incidence: 3
  Lung, Alveolar wall thickening: Minimal, incidence: 0
  Lung, Alveolar wall thickening: Moderate, incidence: 2
  Lung, Alveolar wall thickening: Normal, incidence: 0
  Lung, Alveolar wall thickening: Severe, incidence: 0
  Lung, Hemorrhage: Mild, incidence: 3
  Lung, Hemorrhage: Minimal, incidence: 2
  Lung, Hemorrhage: Moderate, incidence: 0
  Lung, Hemorrhage: Normal, incidence: 0
  Lung, Hemorrhage: Severe, incidence: 0
  Lung, Hyaline membrane: Mild, incidence: 3
  Lung, Hyaline membrane: Minimal, incidence: 0
  Lung, Hyaline membrane: Moderate, incidence: 2
  Lung, Hyaline membrane: Normal, incidence: 0
  Lung, Hyaline membrane: Severe, incidence: 0
  Lung, Inflammatory cell, intestinal: Mild, incidence: 1
